In the NIST ThermoML archive (doi:10.1021/acs.jced.6b00786):
± gives the expanded uncertainty stated by the source.

Test: xn = mol fraction of the nth substance listed
Settings: 101 kPa, Liquid, Vibrating tube method

NC=O [formamide] + O
Settings	mass density [kg/m3]
274.15 K, x1 = 0.00244	1001.03 ± 0.044
274.15 K, x1 = 0.00515	1002.28 ± 0.045
274.15 K, x1 = 0.0086	1003.85 ± 0.046
274.15 K, x1 = 0.02032	1009 ± 0.048
274.15 K, x1 = 0.03478	1014.99 ± 0.052
274.15 K, x1 = 0.04976	1020.81 ± 0.055
274.15 K, x1 = 0.06674	1026.93 ± 0.058
274.15 K, x1 = 0.08229	1032.24 ± 0.061
274.15 K, x1 = 0.1171	1043.06 ± 0.071
275.15 K, x1 = 0.00244	1001.06 ± 0.044
275.15 K, x1 = 0.00515	1002.29 ± 0.045
275.15 K, x1 = 0.0086	1003.84 ± 0.045
275.15 K, x1 = 0.02032	1008.93 ± 0.048
275.15 K, x1 = 0.03478	1014.85 ± 0.052
275.15 K, x1 = 0.04976	1020.62 ± 0.055
275.15 K, x1 = 0.06674	1026.67 ± 0.058
275.15 K, x1 = 0.08229	1031.93 ± 0.061
275.15 K, x1 = 0.1171	1042.67 ± 0.07
276.15 K, x1 = 0.00244	1001.07 ± 0.044
276.15 K, x1 = 0.00515	1002.28 ± 0.045
276.15 K, x1 = 0.0086	1003.81 ± 0.045
276.15 K, x1 = 0.02032	1008.85 ± 0.048
276.15 K, x1 = 0.03478	1014.7 ± 0.051
276.15 K, x1 = 0.04976	1020.4 ± 0.055
276.15 K, x1 = 0.06674	1026.42 ± 0.058
276.15 K, x1 = 0.08229	1031.63 ± 0.061
276.15 K, x1 = 0.1171	1042.28 ± 0.07
277.15 K, x1 = 0.00244	1001.06 ± 0.044
277.15 K, x1 = 0.00515	1002.26 ± 0.045
277.15 K, x1 = 0.0086	1003.77 ± 0.045
277.15 K, x1 = 0.02032	1008.75 ± 0.048
277.15 K, x1 = 0.03478	1014.54 ± 0.051
277.15 K, x1 = 0.04976	1020.19 ± 0.055
277.15 K, x1 = 0.06674	1026.14 ± 0.058
277.15 K, x1 = 0.08229	1031.3 ± 0.061
277.15 K, x1 = 0.1171	1041.88 ± 0.07
278.15 K, x1 = 0.00244	1001.04 ± 0.044
278.15 K, x1 = 0.00515	1002.23 ± 0.045
278.15 K, x1 = 0.0086	1003.72 ± 0.045
278.15 K, x1 = 0.02032	1008.64 ± 0.048
278.15 K, x1 = 0.03478	1014.37 ± 0.051
278.15 K, x1 = 0.04976	1019.96 ± 0.055
278.15 K, x1 = 0.06674	1025.86 ± 0.058
278.15 K, x1 = 0.08229	1030.99 ± 0.061
278.15 K, x1 = 0.1171	1041.47 ± 0.069
278.15 K, x1 = 0.1745	1056.3 ± 0.078
278.15 K, x1 = 0.2169	1065.71 ± 0.085
278.15 K, x1 = 0.2557	1073.39 ± 0.09
278.15 K, x1 = 0.3026	1081.73 ± 0.097
278.15 K, x1 = 0.351	1089.33 ± 0.1
278.15 K, x1 = 0.4027	1096.66 ± 0.11
278.15 K, x1 = 0.4487	1102.5 ± 0.12
278.15 K, x1 = 0.4886	1107.05 ± 0.12
278.15 K, x1 = 0.5601	1114.6 ± 0.13
278.15 K, x1 = 0.5916	1117.67 ± 0.14
278.15 K, x1 = 0.6674	1124.31 ± 0.15
278.15 K, x1 = 0.7066	1127.46 ± 0.15
278.15 K, x1 = 0.7495	1130.64 ± 0.16
278.15 K, x1 = 0.7931	1133.73 ± 0.17
278.15 K, x1 = 0.8601	1138.23 ± 0.17
278.15 K, x1 = 0.8996	1140.73 ± 0.18
278.15 K, x1 = 0.948	1143.61 ± 0.19
278.15 K, x1 = 0.9753	1145.18 ± 0.19
278.15 K, x1 = 0.9847	1145.72 ± 0.2
278.15 K, x1 = 0.9897	1146.01 ± 0.2
278.15 K, x1 = 0.9959	1146.38 ± 0.21
278.15 K, x1 = 1	1146.62 ± 0.2
279.15 K, x1 = 0.00244	1001 ± 0.044
279.15 K, x1 = 0.00515	1002.18 ± 0.045
279.15 K, x1 = 0.0086	1003.65 ± 0.045
279.15 K, x1 = 0.02032	1008.52 ± 0.048
279.15 K, x1 = 0.03478	1014.19 ± 0.051
279.15 K, x1 = 0.04976	1019.74 ± 0.054
279.15 K, x1 = 0.06674	1025.57 ± 0.058
279.15 K, x1 = 0.08229	1030.68 ± 0.061
279.15 K, x1 = 0.1171	1041.07 ± 0.069
280.15 K, x1 = 0.00244	1000.95 ± 0.044
280.15 K, x1 = 0.00515	1002.11 ± 0.045
280.15 K, x1 = 0.0086	1003.57 ± 0.045
280.15 K, x1 = 0.02032	1008.39 ± 0.048
280.15 K, x1 = 0.03478	1014 ± 0.051
280.15 K, x1 = 0.04976	1019.49 ± 0.054
280.15 K, x1 = 0.06674	1025.28 ± 0.058
280.15 K, x1 = 0.08229	1030.32 ± 0.061
280.15 K, x1 = 0.1171	1040.65 ± 0.069
281.15 K, x1 = 0.00244	1000.89 ± 0.044
281.15 K, x1 = 0.00515	1002.04 ± 0.044
281.15 K, x1 = 0.0086	1003.47 ± 0.045
281.15 K, x1 = 0.02032	1008.25 ± 0.048
281.15 K, x1 = 0.03478	1013.8 ± 0.051
281.15 K, x1 = 0.04976	1019.23 ± 0.054
281.15 K, x1 = 0.06674	1024.97 ± 0.058
281.15 K, x1 = 0.08229	1029.97 ± 0.061
281.15 K, x1 = 0.1171	1040.23 ± 0.069
282.15 K, x1 = 0.00244	1000.81 ± 0.044
282.15 K, x1 = 0.00515	1001.94 ± 0.044
282.15 K, x1 = 0.0086	1003.37 ± 0.045
282.15 K, x1 = 0.02032	1008.09 ± 0.048
282.15 K, x1 = 0.03478	1013.58 ± 0.051
282.15 K, x1 = 0.04976	1018.97 ± 0.054
282.15 K, x1 = 0.06674	1024.66 ± 0.057
282.15 K, x1 = 0.08229	1029.6 ± 0.06
282.15 K, x1 = 0.1171	1039.81 ± 0.069
283.15 K, x1 = 0.00244	1000.72 ± 0.044
283.15 K, x1 = 0.00515	1001.84 ± 0.044
283.15 K, x1 = 0.0086	1003.25 ± 0.045
283.15 K, x1 = 0.02032	1007.94 ± 0.048
283.15 K, x1 = 0.03478	1013.36 ± 0.051
283.15 K, x1 = 0.04976	1018.7 ± 0.054
283.15 K, x1 = 0.06674	1024.35 ± 0.057
283.15 K, x1 = 0.08229	1029.24 ± 0.061
283.15 K, x1 = 0.1171	1039.36 ± 0.067
288.15 K, x1 = 0.00244	1000.07 ± 0.044
288.15 K, x1 = 0.00515	1001.13 ± 0.044
288.15 K, x1 = 0.0086	1002.47 ± 0.045
288.15 K, x1 = 0.02032	1006.89 ± 0.047
288.15 K, x1 = 0.03478	1012.11 ± 0.05
288.15 K, x1 = 0.04976	1017.23 ± 0.053
288.15 K, x1 = 0.06674	1022.65 ± 0.056
288.15 K, x1 = 0.08229	1027.38 ± 0.059
288.15 K, x1 = 0.1171	1037.14 ± 0.067
288.15 K, x1 = 0.1745	1051.09 ± 0.076
288.15 K, x1 = 0.2169	1059.95 ± 0.082
288.15 K, x1 = 0.2557	1067.27 ± 0.087
288.15 K, x1 = 0.3026	1075.25 ± 0.094
288.15 K, x1 = 0.351	1082.54 ± 0.1
288.15 K, x1 = 0.4027	1089.57 ± 0.11
288.15 K, x1 = 0.4487	1095.2 ± 0.11
288.15 K, x1 = 0.4886	1099.61 ± 0.12
288.15 K, x1 = 0.5601	1106.92 ± 0.13
288.15 K, x1 = 0.5916	1109.89 ± 0.13
288.15 K, x1 = 0.6674	1116.35 ± 0.14
288.15 K, x1 = 0.7066	1119.42 ± 0.15
